Where a name gives a salt, the structure may show the parent alone.
Assays:
[1] = test system: superoxide dysmutase, catalase and glutathione peroxidase; details: background statement (Jenner, et al.); cited from earlier work
[2] = test system: second-degree burn wounds; assay: second-degree burn wound model, epidermal migration (epithelization) assessment; type: in vivo, Swine; details: for Percent of wounds completely epithelized / number of wounds healed (completely epithelized) over the number of wounds assessed: pig
Protocol: The ability of selegiline and desmethylselegiline to assist in the healing of burns was tested using a second-degree burn wound model. In second-degree burns, the entire surface of the epidermis is destroyed. An epidermal covering is regenerated from the remaining epithelial and epidermal cells adjacent to the burns. This phase of the healing process is called epithelization.
Swine were used for the experimental research animal because their skin has many morphological similarities to human skin. Seven young female specific pathogen free (SPF:Ken-O-Kaw Farms, Windsor, Ill.) pigs weighing 25-30 kg were kept in house for two weeks prior to initiating the experiment. These animals were fed a basal diet ad libitum and housed individually in facilities with controlled temperature (19-21° C.) and lights (12 h/12 h LD).
Experimental animals were clipped with standard animal clippers on the day of the experiment. The skin on the back and both sides of the animal was prepared for wounding by washing with a non-antibiotic soap and sterile water. Each animal was anesthetized i.m. with ketamine-HCl (20 mg/kg), xylazine (2 mg/kg) and atropine (0.05 mg/kg), followed by mask inhalation of an isoflurane and oxygen combination. Five specifically designed cylindrical brass rods weighing 358 g each were heated in a boiling water bath to 100° C. A rod was removed from the water bath and wiped dry before being applied to the skin surface to prevent water droplets from creating a steam burn on the skin. The brass rod was held at a vertical position on the skin for six seconds with all pressure being supplied by gravity in order to make a burn 8.5 mm diameter×0.8 mm deep. Immediately after burning, the roof of the burn blister was removed with a sterile spatula. The burn wounds were made approximately 2 cm from each other.
Approximately 90 burn wounds were made on the anterior two-thirds of the animal. The posterior third of the animal cannot be used because of anatomical differences in burn wound healing (a more rapid healing of burns has been observed at that position).
A total of seven animals were used and a total of fifteen wounds per treatment group were analyzed on each of days 7-12 after wounding. Treatments were coded to maintain blind study compliance. The burn wounds were treated with 25 ug of test article (enough to cover each wound). Treatments were allowed to penetrate into the sites for at least a 20 minute time period. Each treatment was applied within 20 minutes of blister removal and treatment occurred once a day for the first five days.
Beginning on day seven after wounding (day 0) and each day thereafter for four to six days, five burn wounds and the surrounding normal skin from each treatment area were excised using an electrokeratome. Any specimens that were not excised intact were discarded. The excised wounds and the surrounding normal skin were incubated in 0.5 M NaBr for 24 hours at 37° C. After incubation, the specimens were separated into epidermal and dermal sheets. The epidermis was examined macroscopically for defects in the area of the burn wounds. Epithelization was considered complete if no defect was present (healed). […] The epidermal sheet was placed on cardboard for a permanent record.
The number of wounds healed (completely epithelized) were divided by the total number of wounds sampled per day and multiplied by 100.

[3] = 10^-4M topical, day 7 after burning
[4] = 10^-4M topical, day 8 after burning
[5] = 10^-4M topical, day 9 after burning
[6] = 10^-4M topical, day 10 after burning
[7] = 10^-4M topical, day 11 after burning
[8] = 10^-4M topical, day 12 after burning
[9] = 10^-4M topical, day 13 after burning
[10] = 10^-6M topical, day 7 after burning
[11] = 10^-6M topical, day 8 after burning
[12] = 10^-6M topical, day 9 after burning
[13] = 10^-6M topical, day 10 after burning
[14] = 10^-6M topical, day 11 after burning
[15] = 10^-6M topical, day 12 after burning
[16] = 10^-6M topical, day 13 after burning
[17] = 10^-8M topical, day 7 after burning
[18] = 10^-8M topical, day 8 after burning
[19] = 10^-8M topical, day 9 after burning
[20] = 10^-8M topical, day 10 after burning
[21] = 10^-8M topical, day 11 after burning
[22] = 10^-8M topical, day 12 after burning
[23] = 10^-8M topical, day 13 after burning

C#CCN(C)[C@H](C)Cc1ccccc1 [selegiline HCl, selegiline]
activity of the endogenous anti-oxidants superoxide dysmutase, catalase and glutathione peroxidase [1]: increase the activity
initiation of epithelization compared with other treatment groups ([2]; 10^-4 M and 10^-6 M): earlier time point than all other treatment groups
Percent of wounds completely epithelized [2, 3]: (0%)
number of wounds healed (completely epithelized) over the number of wounds assessed [2, 3]:  0/15
Percent of wounds completely epithelized [2, 4]: (0%)
number of wounds healed (completely epithelized) over the number of wounds assessed [2, 4]:  0/15
Percent of wounds completely epithelized [2, 5]: (0%)
number of wounds healed (completely epithelized) over the number of wounds assessed [2, 5]:  0/15
Percent of wounds completely epithelized [2, 6]: 20%
number of wounds healed (completely epithelized) over the number of wounds assessed [2, 6]:  3/15
Percent of wounds completely epithelized ([2]; 10^-4M topical, day 10 after burning, listed as A-1): (20%)
Percent of wounds completely epithelized [2, 7]: 33%
number of wounds healed (completely epithelized) over the number of wounds assessed [2, 7]:  5/15
Percent of wounds completely epithelized ([2]; 10^-4M topical, day 11 after burning, listed as A-1): (33%)
Percent of wounds completely epithelized [2, 8]: 33%
number of wounds healed (completely epithelized) over the number of wounds assessed [2, 8]:  6/15
Percent of wounds completely epithelized ([2]; 10^-4M topical, day 12 after burning, listed as A-1): (40%)
Percent of wounds completely epithelized [2, 9]: 33%
number of wounds healed (completely epithelized) over the number of wounds assessed [2, 9]:  6/15
Percent of wounds completely epithelized ([2]; 10^-4M topical, day 13 after burning, listed as A-1): (40%)
Percent of wounds completely epithelized [2, 10]: (0%)
number of wounds healed (completely epithelized) over the number of wounds assessed [2, 10]:  0/15
Percent of wounds completely epithelized [2, 11]: (0%)
number of wounds healed (completely epithelized) over the number of wounds assessed [2, 11]:  0/15
Percent of wounds completely epithelized [2, 12]: (0%)
number of wounds healed (completely epithelized) over the number of wounds assessed [2, 12]:  0/15
Percent of wounds completely epithelized [2, 13]: 20%
number of wounds healed (completely epithelized) over the number of wounds assessed [2, 13]:  3/15
Percent of wounds completely epithelized ([2]; 10^-6M topical, day 10 after burning, listed as A-2): (20%)
Percent of wounds completely epithelized [2, 14]: 33%
number of wounds healed (completely epithelized) over the number of wounds assessed [2, 14]:  5/15
Percent of wounds completely epithelized ([2]; 10^-6M topical, day 11 after burning, listed as A-2): (33%)
Percent of wounds completely epithelized [2, 15]: 40%
number of wounds healed (completely epithelized) over the number of wounds assessed [2, 15]:  6/15
Percent of wounds completely epithelized ([2]; 10^-6M topical, day 12 after burning, listed as A-2): (40%)
Percent of wounds completely epithelized [2, 16]: 40%
number of wounds healed (completely epithelized) over the number of wounds assessed [2, 16]:  6/15
Percent of wounds completely epithelized ([2]; 10^-6M topical, day 13 after burning, listed as A-2): (40%)
Percent of wounds completely epithelized [2, 17]: (0%)
number of wounds healed (completely epithelized) over the number of wounds assessed [2, 17]:  0/15
Percent of wounds completely epithelized [2, 18]: (0%)
number of wounds healed (completely epithelized) over the number of wounds assessed [2, 18]:  0/15
Percent of wounds completely epithelized [2, 19]: (0%)
number of wounds healed (completely epithelized) over the number of wounds assessed [2, 19]:  0/15
Percent of wounds completely epithelized [2, 20]: (0%)
number of wounds healed (completely epithelized) over the number of wounds assessed [2, 20]:  0/15
Percent of wounds completely epithelized [2, 21]: None
number of wounds healed (completely epithelized) over the number of wounds assessed [2, 21]:  0/15
Percent of wounds completely epithelized ([2]; 10^-8M topical, day 11 after burning, listed as A-3): (0%)
Percent of wounds completely epithelized [2, 22]: 7%
number of wounds healed (completely epithelized) over the number of wounds assessed [2, 22]:  1/15
Percent of wounds completely epithelized ([2]; 10^-8M topical, day 12 after burning, listed as A-3): (7%)
Percent of wounds completely epithelized [2, 23]: Thirty-eight
number of wounds healed (completely epithelized) over the number of wounds assessed [2, 23]:  6/16
Percent of wounds completely epithelized ([2]; 10^-8M topical, day 13 after burning, listed as A-3): (38%)
wound crust colour during absorption of applied agent ([2]; first three days of treatment, normal again after 15 minutes): more pronounced

Source: patent US6461619B1 (Somerset Pharmaceuticals, Inc., priority 1998, dated 2002)
